Results published in patent EP1561465A2, “Methods of use of fluoroquinolone compounds against bacteria” (LG Life Sciences, Ltd., priority 1999, dated 2001).
Converted amounts (≈) assume the structure as drawn. Read-outs that look alike come from different tables or passages of the source.

How the values were obtained:
Type in all cases: cell-based
Moraxella catarrhalis [1] = assay: MIC by agar dilution (NCCLS), 411 isolates Buenos Aires 1998-99
Staphylococcus aureus = assay: MIC by NCCLS reference broth microdilution, 450 respiratory tract pathogens
Streptococcus pneumoniae [2] = assay: MIC by NCCLS broth microdilution, 1100 Japanese clinical isolates 1997-1998; settings: for MIC50 / MIC90 / MIC: Streptococcus pneumoniae; for MIC50: read-out: MIC50; for MIC90: read-out: MIC90; for MIC: Streptococcus pneumoniae quinolone resistant
Salmonella spp. = assay: MIC by agar dilution (NCCLS M7-A4), 288 enteropathogenic isolates, gemifloxacin and 15 other antimicrobials; settings: for MIC (mg/L) Range: Salmonella spp. N= 106
Enterococcus faecalis = assay: MIC by agar dilution (NCCLS), 411 isolates Buenos Aires 1998-99; settings: Enterococcus faecalis (n = 48)
Moraxella catarrhalis [3] = assay: MIC by NCCLS reference broth microdilution, 450 respiratory tract pathogens
Shigella spp. = assay: MIC by agar dilution (NCCLS M7-A4), 288 enteropathogenic isolates, eight quinolones; settings: Shigella spp. (n = 21)
Providencia rettgeri = assay: MIC by NCCLS broth microdilution, 1100 Japanese clinical isolates 1997-1998
Streptococcus pneumoniae [4] = assay: MIC by E-test (broth microdilution for gemifloxacin), 107 pneumococcal carrier isolates, Athens 1998; settings: E-test; for MIC50 / MIC90: Streptococcus pneumoniae; for MIC50: read-out: MIC50; for MIC90: read-out: MIC90
Protocol: Susceptibility testing was performed by agar dilution or epsilometer method (E-test), as recommended by the NCCLS. […] The susceptibility profiles of the strains were assessed using the Epsilometer method (E-test). The isolates were subdivided into two groups according to their penicillin susceptibility patterns (penicillin-susceptible and penicillin-intermediate.

Escherichia coli = assay: MIC by agar dilution (NCCLS), 322 nosocomial Gram negative isolates, Athens 1998; settings: Escherichia coli; n = 57 isolates
Enterobacter spp. = assay: as above; settings: Enterobacter, n = 57 isolates
[5] = β-lactamase positive and erythromycin resistant (n = 10)
[6] = Streptococcus pneumoniae amoxicillin resistant (n=40)
[7] = Streptococcus pneumoniae amoxicillin susceptible (n=35)
[8] = Streptococcus pneumoniae erythromycin resistant (n=34)
[9] = Streptococcus pneumoniae erythromycin susceptible (n=11)
[10] = S. hadar(2), isolates with MICs for ciprofloxacin ≥[…], read-out: MIC
[11] = S. newport(1), isolate with MIC for ciprofloxacin ≥[…], read-out: MIC
[12] = Salmonella, S. tshiongwe(1), isolate with MIC for ciprofloxacin ≥[…], read-out: MIC
[13] = Salmonella, read-out: MIC (mg/L) 50%, Salmonella spp. N= 106
[14] = Salmonella, read-out: MIC (mg/L) 90%, Salmonella spp. N= 106
[15] = Penicillin-intermediate S. pneumoniae (n = 24)
[16] = Penicillin-susceptible S. pneumoniae (n = 107)

In the case of `C[C@H]1COc2c(N3CCN(C)CC3)c(F)cc3c(=O)c(C(=O)O)cn1c23` [Levofloxacin, levofloxacin], the “MIC Range” value (Moraxella catarrhalis [1]; Moraxella catarrhalis (n = 59)) is reported as at most 0.004 to 0.03 µg/mL, the MIC90 (Moraxella catarrhalis [1]; Moraxella catarrhalis (n = 59), read-out: MIC90) is reported as 0.03 µg/mL (≈ 0.083 µM) and the MIC (Staphylococcus aureus; Staphylococcus aureus (n = 50)) is reported as 0.03 to 2 µg/mL (≈ 0.083 to 5.53 µM). It also gave an MIC50 (Staphylococcus aureus; Staphylococcus aureus (n = 50)) of 1 µg/mL (≈ 2.77 µM), an MIC90 (Staphylococcus aureus; Staphylococcus aureus (n = 50)) of 2 µg/mL (≈ 5.53 µM) and an MIC (Staphylococcus aureus; β-lactamase negative (n = 20)) of 0.03 to 2 µg/mL (≈ 0.083 to 5.53 µM). The MIC50 (Staphylococcus aureus; β-lactamase negative (n = 20)) was 2 µg/mL (≈ 5.53 µM), the MIC90 (Staphylococcus aureus; β-lactamase negative (n = 20)) was 2 µg/mL (≈ 5.53 µM) and the MIC (Staphylococcus aureus; β-lactamase positive (n = 20)) was 1 to 2 µg/mL (≈ 2.77 to 5.53 µM). It also gave an MIC50 (Staphylococcus aureus; β-lactamase positive (n = 20)) of 1 µg/mL (≈ 2.77 µM), an MIC90 (Staphylococcus aureus; β-lactamase positive (n = 20)) of 2 µg/mL (≈ 5.53 µM) and an MIC50 (Staphylococcus aureus; [5]) of 1 µg/mL (≈ 2.77 µM). For the same compound, the MIC90 (Staphylococcus aureus; [5]) was 2 µg/mL (≈ 5.53 µM), the “MIC Range” value (Streptococcus pneumoniae [2]; [6]) was 0.5 to 8 µg/mL and the “MIC Range” value (Streptococcus pneumoniae [2]; [7]) was 0.063 to 8 µg/mL. The “MIC Range” value (Streptococcus pneumoniae [2]; [8]) was 0.063 to 8 µg/mL, the “MIC Range” value (Streptococcus pneumoniae [2]; [9]) was 0.5 to 1 µg/mL and the MIC50 (Streptococcus pneumoniae [2]; [6]) was 1 µg/mL (≈ 2.77 µM). The MIC90 (Streptococcus pneumoniae [2]; [6]) was 1 µg/mL (≈ 2.77 µM), the MIC50 (Streptococcus pneumoniae [2]; [7]) was 1 µg/mL (≈ 2.77 µM) and the MIC90 (Streptococcus pneumoniae [2]; [7]) was 1 µg/mL (≈ 2.77 µM). It also gave an MIC50 (Streptococcus pneumoniae [2]; [8]) of 1 µg/mL (≈ 2.77 µM), an MIC90 (Streptococcus pneumoniae [2]; [8]) of 1 µg/mL (≈ 2.77 µM) and an MIC50 (Streptococcus pneumoniae [2]; [9]) of 1 µg/mL (≈ 2.77 µM). It also gave an MIC90 (Streptococcus pneumoniae [2]; [9]) of 1 µg/mL (≈ 2.77 µM), an MIC (Streptococcus pneumoniae [2]; strain TMS1) of 1 µg/mL (≈ 2.77 µM) and an MIC (Streptococcus pneumoniae [2]; strain TMS2) of 16 µg/mL (≈ 44.3 µM). It also gave an MIC (Salmonella spp.; [10]) of 1 mg/L (≈ 2.77 µM), an MIC (Salmonella spp.; [11]) of 1 mg/L (≈ 2.77 µM) and an MIC (Salmonella spp.; S. virchow(2), isolates with MICs for ciprofloxacin ≥[…], read-out: MIC) of 0.25 mg/L (≈ 0.692 µM). For the same compound, the “MIC (mg/L) Range” value (Salmonella spp.) was 0.06 to 1 mg/L, the MIC (Salmonella spp.; [12]) was 1 mg/L (≈ 2.77 µM) and the MIC (Salmonella spp.; [13]) was 0.06 mg/L (≈ 0.166 µM). For the same compound, the MIC (Salmonella spp.; [14]) was 0.25 mg/L (≈ 0.692 µM), the MIC90 (Enterococcus faecalis) was over 32 µg/mL and the MIC (Moraxella catarrhalis [3]; Moraxella catarrhalis (n = 50)) was 0.00375 to 0.03 µg/mL (≈ 0.0104 to 0.083 µM). It also gave an MIC50 (Moraxella catarrhalis [3]; Moraxella catarrhalis (n = 50)) of 0.015 µg/mL (≈ 0.0415 µM), an MIC90 (Moraxella catarrhalis [3]; Moraxella catarrhalis (n = 50)) of 0.03 µg/mL (≈ 0.083 µM) and an MIC (Moraxella catarrhalis [3]; β-lactamase negative (n = 13)) of 0.00375 to 0.03 µg/mL (≈ 0.0104 to 0.083 µM). The MIC50 (Moraxella catarrhalis [3]; β-lactamase negative (n = 13)) was 0.03 µg/mL (≈ 0.083 µM), the MIC90 (Moraxella catarrhalis [3]; β-lactamase negative (n = 13)) was 0.03 µg/mL (≈ 0.083 µM) and the MIC (Moraxella catarrhalis [3]; β-lactamase positive (n = 37)) was 0.00375 to 0.03 µg/mL (≈ 0.0104 to 0.083 µM). For the same compound, the MIC50 (Moraxella catarrhalis [3]; β-lactamase positive (n = 37)) was 0.015 µg/mL (≈ 0.0415 µM), the MIC90 (Moraxella catarrhalis [3]; β-lactamase positive (n = 37)) was 0.03 µg/mL (≈ 0.083 µM) and the “% Susceptible” value (Shigella spp.) was 100%. The MIC50 (Shigella spp.) was 0.03 µg/mL (≈ 0.083 µM), the MIC90 (Shigella spp.) was 0.03 µg/mL (≈ 0.083 µM) and the MIC50 (Providencia rettgeri; Providencia rettgeri) was 0.125 µg/mL (≈ 0.346 µM). The MIC90 (Providencia rettgeri; Providencia rettgeri (n=12)) was 8 µg/mL (≈ 22.1 µM) and the “MIC Range” value (Providencia rettgeri; Providencia rettgeri (n=12)) was 0.125 to 8 µg/mL.

`CC1COc2c(N3CCN(C)CC3)c(F)cc3c(=O)c(C(=O)O)cn1c23` (stereo not drawn) [Ofloxacin, ofloxacin] was tested, and the MIC90 (Moraxella catarrhalis [1]; Moraxella catarrhalis) was 0.125 µg/mL (≈ 0.346 µM), the “MIC Range” value (Moraxella catarrhalis [1]; Moraxella catarrhalis (n = 59)) was 0.06 to 0.125 µg/mL and the MIC (Salmonella spp.; [10]) was 2 mg/L (≈ 5.53 µM). The MIC (Salmonella spp.; [11]) was 2 mg/L (≈ 5.53 µM), the “MIC (mg/L) Range” value (Salmonella spp.) was 0.06 to 2 mg/L and the MIC (Salmonella spp.; [12]) was 2 mg/L (≈ 5.53 µM). The MIC (Salmonella spp.; [13]) was 0.12 mg/L (≈ 0.332 µM), the MIC (Salmonella spp.; [14]) was 0.5 mg/L (≈ 1.38 µM) and the MIC Range (Streptococcus pneumoniae [4]; Penicillin-intermediate S. pneumoniae (n = 24), in µg/mL (unit assumed)) was 0.75-6. For the same compound, the MIC50 (Streptococcus pneumoniae [4]; [15]) was 2 µg/mL (≈ 5.53 µM), the MIC90 (Streptococcus pneumoniae [4]; [15]) was 3 µg/mL (≈ 8.3 µM) and the MIC50 (Streptococcus pneumoniae [4]; [16]) was 2 µg/mL (≈ 5.53 µM). The MIC90 (Streptococcus pneumoniae [4]; [16]) was 4 µg/mL (≈ 11.1 µM), the MIC50 (Escherichia coli) was 0.06 µg/mL (≈ 0.166 µM) and the MIC90 (Escherichia coli) was 0.25 µg/mL (≈ 0.692 µM). It also gave an MIC90 (Enterococcus faecalis) of over 32 µg/mL, an MIC50 (Enterobacter spp.; read-out: MIC50) of 0.125 µg/mL (≈ 0.346 µM) and an MIC90 (Enterobacter spp.; read-out: MIC90) of 64 µg/mL (≈ 177 µM). The “% Susceptible” value (Shigella spp.) was 100%, the MIC50 (Shigella spp.) was 0.03 µg/mL (≈ 0.083 µM) and the MIC90 (Shigella spp.) was 0.06 µg/mL (≈ 0.166 µM). For the same compound, the “MIC Range” value (Shigella spp.) was at most 0.015 to 0.06 µg/mL.
